One experiment deals with Jurkat-XIAP cells. The experiment can be described thus: Annexin V-FITC apoptosis assay, Jurkat-XIAP. Type of experiment: cell-based. Conditions: combination with etoposide, 15 hours. The method, then: (§1) FIGS. 8A and 8B present (A): Dose-dependent induction of apoptosis by etoposide in Jurkat cells transfected with vector control (Jurkat-Vec) and stably transfected with XIAP (Jurkat-XIAP cells); and (B): Induction of apoptosis by etoposide and embelin alone and in combination in Jurkat-Vec and Jurkat-XIAP cells. 1×10^6 Jurkat-XIAP or Jurkat-Vec cells per well in 6-well culture plates were treated with etoposide and embelin alone, or in combination for 15 hours, then stained with Annexin V-FITC and propidium iodide for apoptosis by flow cytometry. The results are shown as percent of Annexin V-FITC positive apoptotic cells.
(§2) PC-3 cells, 1×10^6 cells per well in 6-well culture plates, were treated in triplicate with various concentrations of embelin for 24 or 48 hours, then trypsinized and washed with PBS. For Jurkat cells, 1×10^6 Jurkat-XIAP or Jurkat-Vec cells per well in 6-well culture plates, were treated with etoposide, embelin, or both for 15 hours. For flow cytometry apoptosis assay, cells were stained with Annexin V-FITC and propidium iodide using the Annexin-V-FLUOS Kit (Roche) according to the manufacturer's instruction. The fluorescence of Annexin V-FITC and propidium iodide of individual cells was analyzed by FACScan. The results are shown as percent of Annexin V-FITC positive apoptotic cells.

Experiment [1] has as its target XIAP BIR3 protein of human XIAP (residues 241-356) (Homo sapiens, UniProt P98170). Conditions: read-out: IC50 (displacement of SM7F from XIAP BIR3); 10 nM SM7F, 0.060 μM XIAP BIR3; three independent experiments in triplicate.
Experiment [2] has as its system LNCap prostate cancer cells. Description: WST-1 cell growth inhibition assay, LNCaP. To be noted: Homo sapiens, 120 h, WST-1, five days. It is filed as cell-based. The method, then:
FIG. 5 presents inhibition of cell growth by embelin in prostate cancer cells (PC-3 and LnCap) and its selectivity in normal human prostate epithelial cells (PrEC) and normal human fibroblast cell line, WI-38. 5000 cells per well in a 96-well cell culture plate were treated with various concentrations of embelin in triplicate. Five days later, the cell growth was measured by the WST-1 cell growth assay kit […] The cell growth results are expressed as the percent of control and calculated from the percent of absorbance of treated wells versus that of vehicle control.
Human prostate cancer cell lines (PC-3, LNCap, CL-1, DU-145), and normal human fibroblast cell line WI-38 were obtained from the American Type Culture Collection (ATCC), were grown and maintained in Dulbecco's modified Eagle's medium (DMEM) containing 10% FBS (Invitrogen Corporation). Normal human prostate epithelial cells (PrEC) were obtained from Clonetics (Cambrex Inc., MD) and maintained in the special medium provided by the company. […]
Cell growth was determined by the MTT-based assay using Cell Proliferation Reagent WST-1 (Roche) according to the manufacturer's instruction. […] Absorbance was measured with a plate reader at […] with correction at […]. The results are expressed as the percent of absorbance of treated wells versus that of vehicle control.

The subject of experiment [3] is caspase-9 in normal PrEC cells. Description: Activation of caspase-9 assay, PrEC. Type of experiment: cell-based, human. Conditions: compared to vehicle treated control cells. The procedure:
FIGS. 7A and 7B show the activation of caspase-9 by embelin in PC-3 prostate cancer cells and its selectivity in normal prostate epithelial cells. 1×10^6 PC-3 or PrEC cells per well in 6-well culture plates were treated with embelin for 48 hours. An additional control was prepared by adding the pan-caspase inhibitor Z-VAD-FMK (2 uM final) 5 min before adding embelin, to inhibit caspase activation. The cells were collected and stained of active caspase-9 by CaspGLOW Red Active Caspase-9 Staining Kit, and analyzed by flow cytometry in PI channel.
1×10^6 PC-3 cells per well in 6-well culture plates, were treated with various concentrations of embelin, or the same amount of solvent DMSO as vehicle control, for up to 48 hr. An additional control was prepared by adding the pan-caspase inhibitor Z-VAD-FMK (1 uM final) 5 min before adding embelin, to inhibit caspase activation. The cells were collected for staining of active caspase-9 by CaspGLOW Red Active Caspase-9 Staining Kit (BioVision, Inc., Mountain View, Calif.) according to the manufacturer's instructions, with modification. […] The cells were resuspended in 0.3 ml Binding Buffer and analyzed by flow cytometry, using PI channel for active caspase-9 and FITC channel for apoptosis.

In a further experiment the test system is Jurkat-Vec cells. The experiment can be described thus: Annexin V-FITC apoptosis assay, Jurkat-Vec. Type of experiment: cell-based. To be noted: combination with etoposide, 15 hours. The method, then:
as §1, §2

These results are taken from US7910621B2, “Small molecule antagonists of XIAP family proteins” (The Regents of the University of Michigan, priority 2004, dated 2011).

Usually IC50 stands for the concentration that gives 50% inhibition.

Chain of XIAP BIR3 protein of human XIAP (residues 241-356) (P98170 241-356): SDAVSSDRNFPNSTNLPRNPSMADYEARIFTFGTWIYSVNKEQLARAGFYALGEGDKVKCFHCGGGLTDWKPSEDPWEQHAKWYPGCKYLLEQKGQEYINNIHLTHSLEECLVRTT

For `CCCCCCCCCCCC1=C(O)C(=O)C=C(O)C1=O` [embelin], the “percentage of apoptotic cells in combination, compared to either drug alone” value with Jurkat-XIAP cells was “significantly increased”. The IC50 in experiment [1] worked out at 4.1 ± 1.1 µM; in experiment [2], 5.7 µM. Moreover, the “activation of caspase-9 in normal PrEC” value in experiment [3] is reported as “no significant effect”; in experiment [3] (listed as Embelin), “minimal effects”. Besides, in the experiment on Jurkat-Vec cells, the “effect on etoposide-induced apoptosis in combination, compared to etoposide alone” value is reported as “did not increase”.
